Patent publication US12220421B2, “Inhibitors of C. difficile spore germination” (THE BOARDS OF REGENTS OF THE NEVADA SYSTEM OF HIGHER …, priority 2021, dated 2025)
Like-named read-outs stand apart in the source and are kept apart here.

Test system: C. difficile R20291 spores
Experiment: C. difficile spore germination assay (optical density, OD580)
[1] = Clostridioides difficile, R20291SPORES, Table 2, 6 mM taurocholate, 12 mM glycine
[2] = Clostridioides difficile, R20291SPORES, read-out: % Germination, Table 2, compound 125 μM, 6 mM taurocholate, 12 mM glycine, ± standard deviation
[3] = Clostridioides difficile, R20291SPORES, read-out: IC50 against the R20291 strain, R20291 strain
[4] = Clostridioides difficile, R20291SPORES, Table 3, 6 mM taurocholate, 12 mM glycine
[5] = Clostridioides difficile, R20291SPORES, read-out: % Germination, Table 3, compound 125 μM, 6 mM taurocholate, 12 mM glycine, ± standard deviation
[6] = Table 4, compound 125 uM, 6 mM taurocholate, 12 mM glycine, ± standard deviation
[7] = Clostridioides difficile, R20291SPORES, Table 4, 6 mM taurocholate, 12 mM glycine
[8] = Clostridioides difficile, R20291SPORES, read-out: % Germination (125 μM), Table 5, compound 125 μM, 6 mM taurocholate, 12 mM glycine, 100% indicates no inhibition

Row | Compound | activity at 125 µM [2] [%] | activity at 125 µM [5] [%] | other results
1 | C[C@H](CCC(=O)N1CCc2ccccc21)[C@H]1CC[C@H]2[C@@H]3[C@H](O)C[C@@H]4C[C@H](O)CC[C@]4(C)[C@H]3C[C@H](O)[C@]12C [Compound 1] | 4 ± 1 |  | IC50 [1]: 1 ± 0.3 µM; IC50 [3]: 1 µM
2 | C[C@H](CCC(=O)N1CCc2c(Cl)cccc21)[C@H]1CC[C@H]2[C@@H]3[C@H](O)C[C@@H]4C[C@H](O)CC[C@]4(C)[C@H]3C[C@H](O)[C@]12C [Compound 2] | 95 ± 8 |  | 
3 | Cc1ccc2c(c1)CCN2C(=O)CC[C@@H](C)[C@H]1CC[C@H]2[C@@H]3[C@H](O)C[C@@H]4C[C@H](O)CC[C@]4(C)[C@H]3C[C@H](O)[C@]12C [Compound 3] | 100 |  | 
4 | C[C@H](CCC(=O)N1CCc2cc(F)ccc21)[C@H]1CC[C@H]2[C@@H]3[C@H](O)C[C@@H]4C[C@H](O)CC[C@]4(C)[C@H]3C[C@H](O)[C@]12C [Compound 4] | 5 ± 3 |  | IC50 [1]: 0.4 ± 0.04 µM
5 | C[C@H](CCC(=O)N1CCc2cc(Cl)ccc21)[C@H]1CC[C@H]2[C@@H]3[C@H](O)C[C@@H]4C[C@H](O)CC[C@]4(C)[C@H]3C[C@H](O)[C@]12C [Compound 5] | 70 ± 3 |  | 
6 | C[C@H](CCC(=O)N1CCc2cc(Br)ccc21)[C@H]1CC[C@H]2[C@@H]3[C@H](O)C[C@@H]4C[C@H](O)CC[C@]4(C)[C@H]3C[C@H](O)[C@]12C [Compound 6] | 90 ± 3 |  | IC50 [3]: 0.4 µM
7 | COc1ccc2c(c1)N(C(=O)CC[C@@H](C)[C@H]1CC[C@H]3[C@@H]4[C@H](O)C[C@@H]5C[C@H](O)CC[C@]5(C)[C@H]4C[C@H](O)[C@]13C)CC2 [Compound 7] | 100 |  | 
8 | C[C@H](CCC(=O)N1CCCc2ccccc21)[C@H]1CC[C@H]2[C@@H]3[C@H](O)C[C@@H]4C[C@H](O)CC[C@]4(C)[C@H]3C[C@H](O)[C@]12C [Compound 8] | 17 ± 3 |  | IC50 [1]: 22 ± 3 µM
9 | Cc1ccc2c(c1)CCCN2C(=O)CC[C@@H](C)[C@H]1CC[C@H]2[C@@H]3[C@H](O)C[C@@H]4C[C@H](O)CC[C@]4(C)[C@H]3C[C@H](O)[C@]12C [Compound 9] | 100 |  | 
10 | C[C@H](CCC(=O)N1CCc2ccccc2C1)[C@H]1CC[C@H]2[C@@H]3[C@H](O)C[C@@H]4C[C@H](O)CC[C@]4(C)[C@H]3C[C@H](O)[C@]12C [Compound 11] | 78 ± 2 |  | 
11 | COc1ccc2c(c1)CCN(C(=O)CC[C@@H](C)[C@H]1CC[C@H]3[C@@H]4[C@H](O)C[C@@H]5C[C@H](O)CC[C@]5(C)[C@H]4C[C@H](O)[C@]13C)C2 [Compound 12] | 100 |  | 
12 | C[C@H](CCC(=O)N1CCc2cc(Br)ccc2C1)[C@H]1CC[C@H]2[C@@H]3[C@H](O)C[C@@H]4C[C@H](O)CC[C@]4(C)[C@H]3C[C@H](O)[C@]12C [Compound 13] | 100 |  | 
13 | C[C@H](CCC(=O)N(C)c1ccccc1)[C@H]1CC[C@H]2[C@@H]3[C@H](O)C[C@@H]4C[C@H](O)CC[C@]4(C)[C@H]3C[C@H](O)[C@]12C [Compound 14] | 31 ± 2 |  | IC50 [1]: 32 ± 5 µM
14 | C=CCN(CC=C)C(=O)CC[C@@H](C)[C@H]1CC[C@H]2[C@@H]3[C@H](O)C[C@@H]4C[C@H](O)CC[C@]4(C)[C@H]3C[C@H](O)[C@]12C [Compound 15] | 0.9 ± 0.2 |  | IC50 [1]: 8 ± 3 µM
15 | Cc1nc(CC[C@@H](C)[C@H]2CC[C@H]3[C@@H]4[C@H](O)C[C@@H]5C[C@H](O)CC[C@]5(C)[C@H]4C[C@H](O)[C@]23C)nc2ccccc12 [Compound 30] |  | 35 ± 5 | IC50 [4]: 37 ± 4 µM
16 | C[C@H](CCc1nc(-c2ccccc2)c2ccccc2n1)[C@H]1CC[C@H]2[C@@H]3[C@H](O)C[C@@H]4C[C@H](O)CC[C@]4(C)[C@H]3C[C@H](O)[C@]12C [Compound 31] |  | 92 ± 4 | 
17 | C[C@H](CCc1ncc2c(F)cccc2n1)[C@H]1CC[C@H]2[C@@H]3[C@H](O)C[C@@H]4C[C@H](O)CC[C@]4(C)[C@H]3C[C@H](O)[C@]12C [Compound 32] |  | 36 ± 6 | 
18 | C[C@H](CCc1ncc2cc(F)ccc2n1)[C@H]1CC[C@H]2[C@@H]3[C@H](O)C[C@@H]4C[C@H](O)CC[C@]4(C)[C@H]3C[C@H](O)[C@]12C [Compound 33] |  | 7 ± 3 | IC50 [4]: 28 ± 4 µM

Row | Compound | activity at 125 µM [2] [%] | activity at 125 µM [5] [%] | other results
19 | C[C@H](CCc1ncc2cc(Cl)ccc2n1)[C@H]1CC[C@H]2[C@@H]3[C@H](O)C[C@@H]4C[C@H](O)CC[C@]4(C)[C@H]3C[C@H](O)[C@]12C [Compound 34] |  | 59 ± 0.2 | 
20 | C[C@H](CCc1ncc2ccc(F)cc2n1)[C@H]1CC[C@H]2[C@@H]3[C@H](O)C[C@@H]4C[C@H](O)CC[C@]4(C)[C@H]3C[C@H](O)[C@]12C [Compound 35] |  | 57 ± 2 | 
21 | C[C@H](CCc1ncc2ccc(Cl)cc2n1)[C@H]1CC[C@H]2[C@@H]3[C@H](O)C[C@@H]4C[C@H](O)CC[C@]4(C)[C@H]3C[C@H](O)[C@]12C [Compound 36] |  | 89 ± 10 | 
22 | COc1ccc2cnc(CC[C@@H](C)[C@H]3CC[C@H]4[C@@H]5[C@H](O)C[C@@H]6C[C@H](O)CC[C@]6(C)[C@H]5C[C@H](O)[C@]34C)nc2c1 [Compound 37] |  | 61 ± 5 | 
23 | C[C@H](CCc1ncc2cccc(F)c2n1)[C@H]1CC[C@H]2[C@@H]3[C@H](O)C[C@@H]4C[C@H](O)CC[C@]4(C)[C@H]3C[C@H](O)[C@]12C [Compound 38] |  | 7 ± 0.7 | IC50 [4]: 79 ± 23 µM
24 | COc1cc2cnc(CC[C@@H](C)[C@H]3CC[C@H]4[C@@H]5[C@H](O)C[C@@H]6C[C@H](O)CC[C@]6(C)[C@H]5C[C@H](O)[C@]34C)nc2cc1OC [Compound 39] |  | 78 ± 3 | 
25 | C[C@H](CCc1ncc2cc(F)c(F)cc2n1)[C@H]1CC[C@H]2[C@@H]3[C@H](O)C[C@@H]4C[C@H](O)CC[C@]4(C)[C@H]3C[C@H](O)[C@]12C [Compound 41] |  | 70 ± 23 | 
26 | C[C@H](CCc1nc2ccccc2c(=O)[nH]1)[C@H]1CC[C@H]2[C@@H]3[C@H](O)C[C@@H]4C[C@H](O)CC[C@]4(C)[C@H]3C[C@H](O)[C@]12C [Compound 43] |  | 32 ± 0.6 | IC50 [4]: 20 ± 11 µM
27 | C[C@H](CCc1nc2ccccc2[nH]1)[C@H]1CC[C@H]2[C@@H]3[C@H](O)C[C@@H]4C[C@H](O)CC[C@]4(C)[C@H]3C[C@H](O)[C@]12C [Compound 45] |  |  | IC50 (Table 4, 6 mM taurocholate, 12 mM glycine): 12 ± 7 µM; % Germination [6]: 18 ± 2%
28 | C[C@H](CCc1nc2ccccc2[nH]1)[C@H]1CC[C@H]2[C@@H]3[C@H](O)C[C@@H]4C[C@H](O)CC[C@]4(C)[C@H]3C[C@H](O)[C@]12C [Compound 46] |  |  | IC50 [7]: 6 ± 1 µM; activity at 125 µM (Clostridioides difficile, R20291SPORES, read-out: % Germination, Table 4, compound 125 uM, 6 mM taurocholate, 12 mM glycine, ± standard deviation): 23 ± 5%
29 | C[C@H](CCc1nc2ccccc2s1)[C@H]1CC[C@H]2[C@@H]3[C@H](O)C[C@@H]4C[C@H](O)CC[C@]4(C)[C@H]3C[C@H](O)[C@]12C [Compound 47] |  |  | IC50 [7]: 6 ± 4 µM; % Germination [6]: −6 ± 0.05%
30 | C[C@H](CCc1nc2ccccc2s1)[C@H]1CC[C@H]2[C@@H]3[C@H](O)C[C@@H]4C[C@H](O)CC[C@]4(C)[C@H]3C[C@H](O)[C@]12C [Compound 48] |  |  | % Germination [6]: 88 ± 5%
31 | C[C@H](CCc1nc2ccccc2s1)[C@H]1CC[C@H]2[C@@H]3[C@H](O)C[C@@H]4C[C@H](O)CC[C@]4(C)[C@H]3C[C@H](O)[C@]12C [Compound 49] |  |  | % Germination [6]: 81 ± 2%
32 | C[C@H](CCc1nc2ccccc2o1)[C@H]1CC[C@H]2[C@@H]3[C@H](O)C[C@@H]4C[C@H](O)CC[C@]4(C)[C@H]3C[C@H](O)[C@]12C [Compound 50] |  |  | IC50 [7]: 6 ± 3 µM; % Germination [6]: −4 ± 0.8%
33 | C[C@H](CCc1nc2ccccc2o1)[C@H]1CC[C@H]2[C@@H]3[C@H](O)C[C@@H]4C[C@H](O)CC[C@]4(C)[C@H]3C[C@H](O)[C@]12C [Compound 51] |  |  | % Germination [6]: 80 ± 4%
34 | C[C@H](CCc1nc2ccccc2o1)[C@H]1CC[C@H]2[C@@H]3[C@H](O)C[C@@H]4C[C@H](O)CC[C@]4(C)[C@H]3C[C@H](O)[C@]12C [Compound 52] |  |  | % Germination [6]: 83 ± 8%
35 | COc1ccccc1NC(=O)CC[C@@H](C)[C@H]1CC[C@H]2[C@@H]3[C@H](O)C[C@@H]4C[C@H](O)CC[C@]4(C)[C@H]3CC[C@]12C [Compound 54] |  |  | IC50 (Clostridioides difficile, R20291SPORES, Table 5, 6 mM taurocholate, 12 mM glycine): 6 ± 1 µM; activity at 125 µM [8]: 31 ± 2%
36 | C[C@H](CCC(=O)Nc1cccc(F)c1)[C@H]1CC[C@H]2[C@@H]3[C@H](O)C[C@@H]4C[C@H](O)CC[C@]4(C)[C@H]3CC[C@]12C [Compound 55] |  |  | activity at 125 µM [8]: 100%
